We go through six compounds from patent publication EP4122499A1, “FIBROBLAST ACTIVATION PROTEIN INHIBITORS AND USE THEREOF” (3B Pharmaceuticals GmbH, priority 2021, dated 2023).

One assay has as its target T1, recombinant human PREP (Homo sapiens, UniProt P48147).
T1 construct: purchased R&D systems 4308-SE
T1 sequence (P48147 1-710): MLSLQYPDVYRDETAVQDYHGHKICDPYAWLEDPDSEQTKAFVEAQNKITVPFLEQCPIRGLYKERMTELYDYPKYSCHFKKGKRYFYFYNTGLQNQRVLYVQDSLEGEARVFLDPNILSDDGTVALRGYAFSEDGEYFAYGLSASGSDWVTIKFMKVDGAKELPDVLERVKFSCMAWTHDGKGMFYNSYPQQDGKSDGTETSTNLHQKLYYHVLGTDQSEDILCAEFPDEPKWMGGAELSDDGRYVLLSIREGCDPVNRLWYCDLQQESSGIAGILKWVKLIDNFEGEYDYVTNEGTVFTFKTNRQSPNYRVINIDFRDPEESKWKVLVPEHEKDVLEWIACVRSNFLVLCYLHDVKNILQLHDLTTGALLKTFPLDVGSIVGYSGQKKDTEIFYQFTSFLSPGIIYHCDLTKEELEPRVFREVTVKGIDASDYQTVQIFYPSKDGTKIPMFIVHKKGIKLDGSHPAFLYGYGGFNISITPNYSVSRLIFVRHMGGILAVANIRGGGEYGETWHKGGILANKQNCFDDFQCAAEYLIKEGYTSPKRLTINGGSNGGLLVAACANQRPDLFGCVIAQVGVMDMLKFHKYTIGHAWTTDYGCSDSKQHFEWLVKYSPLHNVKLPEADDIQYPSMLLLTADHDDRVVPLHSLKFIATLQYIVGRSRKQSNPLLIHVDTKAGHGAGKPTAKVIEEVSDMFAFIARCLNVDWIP
As to the kind of experiment: PREP protease activity assay. The note with it: 50 µM Z-GP-AMC substrate. Type of assay: biochemical. The protocol:
(§1) The PREP activity assay was performed using the FACS buffer (PBS including 1% FBS, Sigma-Aldrich, Cat# D8537). […] The DPP4 activity assay was performed in DPP assay buffer (25 mM Tris, pH 8.0).
(§2) Four parameter logistic (4PL) curve fitting and pIC50 calculations were performed using ActivityBase software.

For a further assay, the target named is T2, Human recombinant FAP (Homo sapiens, UniProt Q12884).
T2 sequence (Q12884 1-760): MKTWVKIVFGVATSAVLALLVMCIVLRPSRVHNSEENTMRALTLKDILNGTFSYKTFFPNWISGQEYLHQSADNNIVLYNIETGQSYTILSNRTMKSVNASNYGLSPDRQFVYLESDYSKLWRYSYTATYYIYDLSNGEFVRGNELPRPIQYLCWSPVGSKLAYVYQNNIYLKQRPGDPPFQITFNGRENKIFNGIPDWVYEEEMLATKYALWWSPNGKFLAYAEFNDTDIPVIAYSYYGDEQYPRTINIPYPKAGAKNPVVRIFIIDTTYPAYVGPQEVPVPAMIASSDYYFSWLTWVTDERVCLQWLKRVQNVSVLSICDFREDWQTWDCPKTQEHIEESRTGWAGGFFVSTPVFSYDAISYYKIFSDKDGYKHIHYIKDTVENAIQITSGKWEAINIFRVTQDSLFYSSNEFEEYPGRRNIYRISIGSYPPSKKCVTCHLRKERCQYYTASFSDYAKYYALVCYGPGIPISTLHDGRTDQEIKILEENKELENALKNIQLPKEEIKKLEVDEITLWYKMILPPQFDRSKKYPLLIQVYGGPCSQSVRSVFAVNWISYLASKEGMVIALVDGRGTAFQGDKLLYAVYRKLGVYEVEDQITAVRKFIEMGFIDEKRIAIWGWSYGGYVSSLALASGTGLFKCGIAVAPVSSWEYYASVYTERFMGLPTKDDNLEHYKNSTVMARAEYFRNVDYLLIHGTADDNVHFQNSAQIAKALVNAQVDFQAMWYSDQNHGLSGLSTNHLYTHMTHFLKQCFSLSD
The assay can be described thus: FRET-based FAP protease activity assay (human). Type of assay: biochemical. Details: purchased R&D systems 3715-SE. The note with it: FRET-peptide substrate, 37°C. The protocol:
In order to determine the inhibitory activity a FRET-based FAP protease activity assay was established.
25 µL of a 30 µM substrate solution, diluted in assay buffer, was added. […] Four parameter logistic (4PL) curve fitting and pIC50 calculations were performed using ActivityBase software (IDBS).

Assay [1] concerns the target T3, FAP-expressing human WI-38 fibroblasts (Homo sapiens, UniProt Q12884).
T3 construct: FAP-expressing human WI-38 fibroblasts (ECACC 90020107) were cultured in EMEM; host or cells: WI-38 human fibroblasts
T3 sequence (Q12884 1-760): T2 sequence (Q12884 1-760)
As to the kind of experiment: Competitive FACS binding assay (displacement of Cy5-labeled FAP inhibitor 3BP-2935). The note with it: 3 nM Cy5-labeled 3BP-2935, 4°C, 1 hour. (In flow cytometry, cells or beads pass a laser one at a time.)

In a further assay the target is T4, Recombinant human DPP4 (Homo sapiens, UniProt P27487).
T4 construct: purchased R&D systems 9168-SE
T4 sequence (P27487 whole entry): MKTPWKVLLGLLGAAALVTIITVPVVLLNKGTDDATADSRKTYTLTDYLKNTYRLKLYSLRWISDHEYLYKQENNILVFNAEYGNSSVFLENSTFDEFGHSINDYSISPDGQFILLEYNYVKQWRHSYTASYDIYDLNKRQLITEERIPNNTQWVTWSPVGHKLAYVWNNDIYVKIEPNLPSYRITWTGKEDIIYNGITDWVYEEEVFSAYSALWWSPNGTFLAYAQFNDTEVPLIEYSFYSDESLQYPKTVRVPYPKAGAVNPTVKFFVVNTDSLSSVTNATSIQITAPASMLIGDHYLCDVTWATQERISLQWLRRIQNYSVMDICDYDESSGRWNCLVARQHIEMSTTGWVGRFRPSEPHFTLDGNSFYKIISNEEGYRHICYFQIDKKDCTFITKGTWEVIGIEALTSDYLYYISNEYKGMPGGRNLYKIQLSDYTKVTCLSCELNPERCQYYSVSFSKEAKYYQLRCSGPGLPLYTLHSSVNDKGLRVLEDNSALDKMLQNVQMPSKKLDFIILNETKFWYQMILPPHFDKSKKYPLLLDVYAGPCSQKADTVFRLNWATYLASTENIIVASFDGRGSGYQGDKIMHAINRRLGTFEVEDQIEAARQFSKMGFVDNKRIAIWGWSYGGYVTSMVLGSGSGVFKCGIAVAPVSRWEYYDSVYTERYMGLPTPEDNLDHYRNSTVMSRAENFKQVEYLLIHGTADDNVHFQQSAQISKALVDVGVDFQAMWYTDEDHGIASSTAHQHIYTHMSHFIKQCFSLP
As to the kind of experiment: DPP4 protease activity assay. In kind it is biochemical. The note with it: 20 µM GP-AMC substrate. How it is done:
as §1, §2

The structures appear in SMILES notation. A value given as a limit tells only on which side of the number the result lay.

On to `O=C(O)CN1CCN(CC(=O)O)CCN(CC(=O)N2CCN(CCNC(=O)c3ccc(-c4ccc5nccc(C(=O)NCC(=O)N6CCC[C@H]6C(=O)c6nc7ccccc7o6)c5c4)cc3)CC2)CCN(CC(=O)O)CC1` [drawing 354], for which the “pIC50 (PREP)” value on recombinant human PREP turned out to be 8.2. For the same compound, the “pIC50 (Activity)” value on Human recombinant FAP is recorded as 8.4. Besides, the “pIC50 (FACS)” value in assay [1] worked out at 7.9. Moreover, the “pIC50 (DPP4)” value on Recombinant human DPP4 was <6.

As to `O=C(O)CN1CCN(CC(=O)O)CCN(CC(=O)N2CCN(CCNC(=O)c3ccc(-c4ccc5c(C(=O)NCC(=O)N6CCC[C@H]6C(=O)c6nc7ccccc7o6)ccnc5c4)cc3)CC2)CCN(CC(=O)O)CC1` [drawing 355], at recombinant human PREP, the “pIC50 (PREP)” value was 8.7. The “pIC50 (Activity)” value at Human recombinant FAP is listed as 8.7. Further, the “pIC50 (FACS)” value in assay [1] is reported as 8.4. Moreover, the “pIC50 (DPP4)” value on Recombinant human DPP4 is <6.

For `O=C(O)CN1CCN(CC(=O)O)CCN(CC(=O)N2CCN(CCCOc3ccc4nccc(C(=O)NCC(=O)N5CCC[C@H]5C(=O)c5nc6ccccc6o5)c4c3)CC2)CCN(CC(=O)O)CC1` [drawing 357], the “pIC50 (PREP)” value at recombinant human PREP came to 8.6. Further, the “pIC50 (Activity)” value at Human recombinant FAP stood at 8.9. Also, the “pIC50 (FACS)” value in assay [1] came to 8.6. Also, on Recombinant human DPP4, the “pIC50 (DPP4)” value was <6.

For the compound `O=C(O)CN1CCN(CC(=O)O)CCN(CC(=O)N2CCN(CCCOc3ccc4nccc(C(=O)NCC(=O)N5C[C@@H](F)C[C@H]5C(=O)c5nc6ccccc6o5)c4c3)CC2)CCN(CC(=O)O)CC1` [drawing 358], the “pIC50 (PREP)” value at recombinant human PREP worked out at 7.8. Also, on Human recombinant FAP, the “pIC50 (Activity)” value came to 9. Besides, the “pIC50 (FACS)” value in assay [1] was 8.6. In addition, the “pIC50 (DPP4)” value at Recombinant human DPP4 is listed as <6.

In the case of `O=C(O)CN1CCN(CC(=O)O)CCN(CC(=O)N2CCN(CCNC(=O)c3ccc(-c4ccc5nccc(C(=O)NCC(=O)N6C[C@@H](F)C[C@H]6C(=O)c6nc7ccccc7o6)c5c4)cc3)CC2)CCN(CC(=O)O)CC1` [drawing 360], the “pIC50 (PREP)” value on recombinant human PREP is 7.3. Moreover, the “pIC50 (Activity)” value on Human recombinant FAP worked out at 8.5. Further, the “pIC50 (FACS)” value in assay [1] came to 7.6. In addition, the “pIC50 (DPP4)” value on Recombinant human DPP4 is <6.

Consider `O=C(O)CN1CCN(CC(=O)O)CCN(CC(=O)N2CCN(CCNC(=O)c3ccc(-c4ccc5nccc(C(=O)NCC(=O)N6CCC[C@H]6C(=O)c6nc7ccccc7o6)c5c4)cn3)CC2)CCN(CC(=O)O)CC1` [drawing 361], for which the “pIC50 (PREP)” value on recombinant human PREP is 7.9. Further, on Human recombinant FAP, the “pIC50 (Activity)” value is recorded as 8.4. Besides, in assay [1], the “pIC50 (FACS)” value is given as 7.6. In addition, the “pIC50 (DPP4)” value at Recombinant human DPP4 is listed as <6.
